Data as given in patent publication US12421216B2, “Voruciclib polymorphs and methods of making and using thereof” (MEI PHARMA, INC., priority 2019, dated 2025).
“Also recorded” adds a separate entry of the source.

Assays:
[1] = Physical stability upon exposure to accelerated aging conditions (AAC, 40° C./75% RH), re-analysis by HT-XRPD; assay type: physicochemical; settings: for Physical stability upon exposure to AAC / Stable during AAC: 40° C./75% RH, 2 days; for Physical stability upon exposure to AAC: HT-XRPD before and after; for Solid phase AAC (XRPD form after accelerated aging): precipitated solids of the salt screen, dried under vacuum at 50° C.; for Solid phase AAC (XRPD form after accelerated aging) / Liquid phase AAC (XRPD form after accelerated aging): 40° C./75% RH for 2 days, HT-XRPD; for Stable during AAC: salt screen solids; for Liquid phase AAC (XRPD form after accelerated aging): solids from evaporated mother liquors of the salt screen
[2] = Solubility of salts in water and in 0.2 M phosphate buffer pH 6 at 37° C. after 4 hours (HPLC-DAD); assay type: physicochemical; settings: for pH (4 h): pH at end of equilibration
Protocol: Two sets of solubility experiments were performed. […] In the second set of solubility experiments about 5 mg of the salt was weighed in a standard 1.8 mL HPLC vial. Subsequently, aliquots of 200 μL of aqueous medium were added up to a maximum of 1 mL, while making observations regarding the dissolution behavior of the salts. The vials were left to equilibrate at 37° C. with continuous stirring (see Table 25 for details). After 4 hours the solids were separated from the liquid by centrifugation and the liquid phase was further filtrated through a […] PTFE filter to remove any particulate matter. The concentration of solute was determined by HPLC-DAD analysis. A calibration curve was made from two independent stock solutions of voruciclib prepared in acetonitrile/water. The pH was recorded at the end of the equilibration time.

[3] = 0.2 M phosphate buffer pH 6, 37° C., 4 hours
[4] = 0.2M phosphate buffer pH 6, 37° C., 4 hours, about 1 mg salt in 1 mL
[5] = 0.2M phosphate buffer pH 6, 37° C., 4 hours, about 5 mg salt in 1 mL
[6] = 0.2M phosphate buffer pH 6, 37° C., about 1 mg salt in 1 mL
[7] = 0.2M phosphate buffer pH 6, 37° C., about 5 mg salt in 1 mL
[8] = water, 37° C., 4 hours, about 1 mg salt in 1 mL
[9] = water, 37° C., 4 hours, about 5 mg salt, up to 1 mL
[10] = water, 37° C., about 1 mg salt in 1 mL
[11] = water, 37° C., about 5 mg salt, up to 1 mL

SMILES: CN1CCC(c2c(O)cc(O)c3c(=O)cc(-c4ccc(C(F)(F)F)cc4Cl)oc23)C1CO.CN1CCC(c2c(O)cc(O)c3c(=O)cc(-c4ccc(C(F)(F)F)cc4Cl)oc23)C1CO.O=C(OC(C(=O)O)C(OC(=O)c1ccccc1)C(=O)O)c1ccccc1 (centres unmarked) [DiTr1]
- Physical stability upon exposure to AAC [1]: physically stable under AAC; also recorded: physically stable upon exposure to AAC for two days
- Solid phase AAC (XRPD form after accelerated aging) [1]: DiTr1
- Stable during AAC [1]: Yes
- Solubility in phosphate buffer [2, 3]: 30 to 40 µg/mL
- solubility [2, 4]: 30 µg/mL
- solubility [2, 5]: 40 µg/mL
- Form (4 h) of residual solid [2, 6]: DiTr1
- pH (4 h) [2, 6]: 6.0
- Form (4 h) of residual solid [2, 7]: DiTr1
- pH (4 h) [2, 7]: 6.3
- Dissolution behaviour in aqueous media (gelling, wettability) ([2]; salt screen, water and/or 0.2 M phosphate buffer pH 6): poor wettability
- Solubility in water ([2]; water, 37° C., 4 hours): 30 to 40 µg/mL
- solubility [2, 8]: 40 µg/mL
- solubility [2, 9]: 30 µg/mL
- Solids recovered after solubility determination in water ([2]; water, 37° C., 4 hours, XRPD): DiTr1 was recovered
- pH (4 h) [2, 10]: 4.0
- Form (4 h) of residual solid [2, 11]: DiTr1
- pH (4 h) [2, 11]: 3.5

SMILES: CN1CCC(c2c(O)cc(O)c3c(=O)cc(-c4ccc(C(F)(F)F)cc4Cl)oc23)C1CO.O=C(O)CC(O)C(=O)O (centres unmarked) [Mal1]
- Stable during AAC [1]: Yes

SMILES: CN1CCC(c2c(O)cc(O)c3c(=O)cc(-c4ccc(C(F)(F)F)cc4Cl)oc23)C1CO.O=C(O)c1ccccc1 (centres unmarked) [Ben1]
- Physical stability upon exposure to AAC [1]: physically unstable during exposure to AAC for two days and converted to Ben3
- Stable during AAC [1]: No => Ben3
- Liquid phase AAC (XRPD form after accelerated aging) [1]: Ben3

SMILES: CN1CC[C@@H](c2c(O)cc(O)c3c(=O)cc(-c4ccc(C(F)(F)F)cc4Cl)oc23)[C@@H]1CO.CN1CC[C@@H](c2c(O)cc(O)c3c(=O)cc(-c4ccc(C(F)(F)F)cc4Cl)oc23)[C@@H]1CO.O=S(=O)(O)c1cccc2c(S(=O)(=O)O)cccc12 [Nds1a]
- Physical stability upon exposure to AAC [1]: stable during exposure to AAC for 2 days; also recorded: physically stable upon exposure to AAC for two days
- Solid phase AAC (XRPD form after accelerated aging) [1]: Nds1a
- Stable during AAC [1]: Yes
- Solubility in phosphate buffer [2, 3]: 20 µg/mL
- solubility [2, 4]: 20 µg/mL
- solubility [2, 5]: 20 µg/mL
- Solids recovered / salt dissociation after solubility determination in buffer ([2]; 0.2 M phosphate buffer pH 6, 37° C., 4 hours, XRPD): the residual solids were identical to Nds1a
- Form (4 h) of residual solid [2, 6]: Free
- pH (4 h) [2, 6]: 6.0
- Form (4 h) of residual solid [2, 7]: Nds1a
- pH (4 h) [2, 7]: 5.9
- Solubility in water ([2]; water, 37° C., 4 hours): 20 µg/mL
- solubility [2, 8]: 30 µg/mL
- solubility [2, 9]: 20 µg/mL
- Solids recovered after solubility determination in water ([2]; water, 37° C., 4 hours, XRPD): the residual solids were identical to Nds1a
- pH (4 h) [2, 10]: 4.3
- Form (4 h) of residual solid [2, 11]: Nds1a
- pH (4 h) [2, 11]: 3.4

SMILES: N[C@@H](CCC(=O)O)C(=O)O [Glm0]
- Solid phase AAC (XRPD form after accelerated aging) [1]: Glm0

SMILES: CN1CC[C@@H](c2c(O)cc(O)c3c(=O)cc(-c4ccc(C(F)(F)F)cc4Cl)oc23)[C@@H]1CO.O=C(O)c1ccc2ccccc2c1O [Xin1]
- Physical stability upon exposure to AAC [1]: physically stable during exposure to AAC
- Stable during AAC [1]: Yes
- Liquid phase AAC (XRPD form after accelerated aging) [1]: Xin1

SMILES: CN1CC[C@@H](c2c(O)cc(O)c3c(=O)cc(-c4ccc(C(F)(F)F)cc4Cl)oc23)[C@@H]1CO.O=S(=O)(O)O [Sul1]
- Solid phase AAC (XRPD form after accelerated aging) [1]: Sul1
- Stable during AAC [1]: Yes
- Liquid phase AAC (XRPD form after accelerated aging) [1]: Sul1

SMILES: Br.CN1CCC(c2c(O)cc(O)c3c(=O)cc(-c4ccc(C(F)(F)F)cc4Cl)oc23)C1CO (centres unmarked) [HBr1]
- Physical stability upon exposure to AAC [1]: physically unstable during exposure to accelerated aging conditions and converted to HBr2
- Stable during AAC [1]: No => HBr2
- Liquid phase AAC (XRPD form after accelerated aging) [1]: HBr2

SMILES: CN1CCC(c2c(O)cc(O)c3c(=O)cc(-c4ccc(C(F)(F)F)cc4Cl)oc23)C1CO.O=C(O)C=CC(=O)O (centres unmarked) [Fum1]
- Solid phase AAC (XRPD form after accelerated aging) [1]: Fum1
- Stable during AAC [1]: Yes

SMILES: CN1CC[C@@H](c2c(O)cc(O)c3c(=O)cc(-c4ccc(C(F)(F)F)cc4Cl)oc23)[C@@H]1CO.O=S(=O)(O)c1ccccc1 [Bes1]
- Physical stability upon exposure to AAC [1]: physically unstable during exposure to AAC and became less crystalline
- Stable during AAC [1]: No => Am or

SMILES: CN1CCC(c2c(O)cc(O)c3c(=O)cc(-c4ccc(C(F)(F)F)cc4Cl)oc23)C1CO.CN1CCC(c2c(O)cc(O)c3c(=O)cc(-c4ccc(C(F)(F)F)cc4Cl)oc23)C1CO.O=S(=O)(O)O (centres unmarked) [Sul2]
- Solid phase AAC (XRPD form after accelerated aging) [1]: Sul2
- Stable during AAC [1]: Yes

SMILES: CN1CCC(c2c(O)cc(O)c3c(=O)cc(-c4ccc(C(F)(F)F)cc4Cl)oc23)C1CO.O=S(=O)(O)O (centres unmarked) [Sul4]
- Stable during AAC [1]: Yes

SMILES: CN1CCC(c2c(O)cc(O)c3c(=O)cc(-c4ccc(C(F)(F)F)cc4Cl)oc23)C1CO.CN1CCC(c2c(O)cc(O)c3c(=O)cc(-c4ccc(C(F)(F)F)cc4Cl)oc23)C1CO.O=S(=O)(O)c1cccc2c(S(=O)(=O)O)cccc12 (centres unmarked) [Hemi-napadisylate]
- Solubility pH 6 [2, 3]: 0.02 mg/mL
- Solubility water ([2]; water, 37° C., 4 hours): 20 µg/mL
